In assay [1] the target is T1, ATM (Homo sapiens, UniProt Q13315).
T1 construct: detecting phosphorylation of Chk2 in a human non-small cell lung cancer cell line NCI-H460 (ATCC company); host or cells: NCI-H460 human non-small cell lung cancer cells
In words: ATM inhibition test (phosphorylation of Chk2 generated by ionizing radiation, AlphaScreen SureFire). The class given is cell-based. The note with it: phosphorylated Chk2 in NCI-H460 cells, ionizing radiation 8Gy, 1 hour after test compound treatment; read-out: ATM inhibitory activity. The procedure, abridged: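 Phosphorylated Chk2 read by AlphaScreen SureFire in human non-small cell lung cancer NCI-H460 cells, 1 hour after 8Gy ionizing radiation at 37° C. Compound added 1 hour before irradiation. Percent inhibition normalised between irradiated and non-irradiated drug-untreated signals.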
In general terms: Alpha assays give light when donor and acceptor beads are brought close together.

In assay [2] the test system is human non-small cell lung cancer cell line NCI-H460. The assay is described as follows: Cell proliferation inhibition test by sensitivity-enhancing to ionizing radiation (Cell Titer Glo). The class given is cell-based. The note with it: concentration in which SER became 2, NCI-H460 cells, ionizing radiation 2 Gy, cultured 120 hour. The method in brief:
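Cells seeded at 2×10^3 cells/mL in RPMI-1640 with 10% FBS; after 24 h, compound added (0.1% DMSO), and 30 min later half the plates irradiated at 2 Gy. After 120 hour at 37° C, viability by Cell Titer Glo luminescence; SER2 is the concentration giving SER of 2 by sigmoidal fit.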

SMILES strings stand for the structures.

T1 sequence (Q13315 whole entry): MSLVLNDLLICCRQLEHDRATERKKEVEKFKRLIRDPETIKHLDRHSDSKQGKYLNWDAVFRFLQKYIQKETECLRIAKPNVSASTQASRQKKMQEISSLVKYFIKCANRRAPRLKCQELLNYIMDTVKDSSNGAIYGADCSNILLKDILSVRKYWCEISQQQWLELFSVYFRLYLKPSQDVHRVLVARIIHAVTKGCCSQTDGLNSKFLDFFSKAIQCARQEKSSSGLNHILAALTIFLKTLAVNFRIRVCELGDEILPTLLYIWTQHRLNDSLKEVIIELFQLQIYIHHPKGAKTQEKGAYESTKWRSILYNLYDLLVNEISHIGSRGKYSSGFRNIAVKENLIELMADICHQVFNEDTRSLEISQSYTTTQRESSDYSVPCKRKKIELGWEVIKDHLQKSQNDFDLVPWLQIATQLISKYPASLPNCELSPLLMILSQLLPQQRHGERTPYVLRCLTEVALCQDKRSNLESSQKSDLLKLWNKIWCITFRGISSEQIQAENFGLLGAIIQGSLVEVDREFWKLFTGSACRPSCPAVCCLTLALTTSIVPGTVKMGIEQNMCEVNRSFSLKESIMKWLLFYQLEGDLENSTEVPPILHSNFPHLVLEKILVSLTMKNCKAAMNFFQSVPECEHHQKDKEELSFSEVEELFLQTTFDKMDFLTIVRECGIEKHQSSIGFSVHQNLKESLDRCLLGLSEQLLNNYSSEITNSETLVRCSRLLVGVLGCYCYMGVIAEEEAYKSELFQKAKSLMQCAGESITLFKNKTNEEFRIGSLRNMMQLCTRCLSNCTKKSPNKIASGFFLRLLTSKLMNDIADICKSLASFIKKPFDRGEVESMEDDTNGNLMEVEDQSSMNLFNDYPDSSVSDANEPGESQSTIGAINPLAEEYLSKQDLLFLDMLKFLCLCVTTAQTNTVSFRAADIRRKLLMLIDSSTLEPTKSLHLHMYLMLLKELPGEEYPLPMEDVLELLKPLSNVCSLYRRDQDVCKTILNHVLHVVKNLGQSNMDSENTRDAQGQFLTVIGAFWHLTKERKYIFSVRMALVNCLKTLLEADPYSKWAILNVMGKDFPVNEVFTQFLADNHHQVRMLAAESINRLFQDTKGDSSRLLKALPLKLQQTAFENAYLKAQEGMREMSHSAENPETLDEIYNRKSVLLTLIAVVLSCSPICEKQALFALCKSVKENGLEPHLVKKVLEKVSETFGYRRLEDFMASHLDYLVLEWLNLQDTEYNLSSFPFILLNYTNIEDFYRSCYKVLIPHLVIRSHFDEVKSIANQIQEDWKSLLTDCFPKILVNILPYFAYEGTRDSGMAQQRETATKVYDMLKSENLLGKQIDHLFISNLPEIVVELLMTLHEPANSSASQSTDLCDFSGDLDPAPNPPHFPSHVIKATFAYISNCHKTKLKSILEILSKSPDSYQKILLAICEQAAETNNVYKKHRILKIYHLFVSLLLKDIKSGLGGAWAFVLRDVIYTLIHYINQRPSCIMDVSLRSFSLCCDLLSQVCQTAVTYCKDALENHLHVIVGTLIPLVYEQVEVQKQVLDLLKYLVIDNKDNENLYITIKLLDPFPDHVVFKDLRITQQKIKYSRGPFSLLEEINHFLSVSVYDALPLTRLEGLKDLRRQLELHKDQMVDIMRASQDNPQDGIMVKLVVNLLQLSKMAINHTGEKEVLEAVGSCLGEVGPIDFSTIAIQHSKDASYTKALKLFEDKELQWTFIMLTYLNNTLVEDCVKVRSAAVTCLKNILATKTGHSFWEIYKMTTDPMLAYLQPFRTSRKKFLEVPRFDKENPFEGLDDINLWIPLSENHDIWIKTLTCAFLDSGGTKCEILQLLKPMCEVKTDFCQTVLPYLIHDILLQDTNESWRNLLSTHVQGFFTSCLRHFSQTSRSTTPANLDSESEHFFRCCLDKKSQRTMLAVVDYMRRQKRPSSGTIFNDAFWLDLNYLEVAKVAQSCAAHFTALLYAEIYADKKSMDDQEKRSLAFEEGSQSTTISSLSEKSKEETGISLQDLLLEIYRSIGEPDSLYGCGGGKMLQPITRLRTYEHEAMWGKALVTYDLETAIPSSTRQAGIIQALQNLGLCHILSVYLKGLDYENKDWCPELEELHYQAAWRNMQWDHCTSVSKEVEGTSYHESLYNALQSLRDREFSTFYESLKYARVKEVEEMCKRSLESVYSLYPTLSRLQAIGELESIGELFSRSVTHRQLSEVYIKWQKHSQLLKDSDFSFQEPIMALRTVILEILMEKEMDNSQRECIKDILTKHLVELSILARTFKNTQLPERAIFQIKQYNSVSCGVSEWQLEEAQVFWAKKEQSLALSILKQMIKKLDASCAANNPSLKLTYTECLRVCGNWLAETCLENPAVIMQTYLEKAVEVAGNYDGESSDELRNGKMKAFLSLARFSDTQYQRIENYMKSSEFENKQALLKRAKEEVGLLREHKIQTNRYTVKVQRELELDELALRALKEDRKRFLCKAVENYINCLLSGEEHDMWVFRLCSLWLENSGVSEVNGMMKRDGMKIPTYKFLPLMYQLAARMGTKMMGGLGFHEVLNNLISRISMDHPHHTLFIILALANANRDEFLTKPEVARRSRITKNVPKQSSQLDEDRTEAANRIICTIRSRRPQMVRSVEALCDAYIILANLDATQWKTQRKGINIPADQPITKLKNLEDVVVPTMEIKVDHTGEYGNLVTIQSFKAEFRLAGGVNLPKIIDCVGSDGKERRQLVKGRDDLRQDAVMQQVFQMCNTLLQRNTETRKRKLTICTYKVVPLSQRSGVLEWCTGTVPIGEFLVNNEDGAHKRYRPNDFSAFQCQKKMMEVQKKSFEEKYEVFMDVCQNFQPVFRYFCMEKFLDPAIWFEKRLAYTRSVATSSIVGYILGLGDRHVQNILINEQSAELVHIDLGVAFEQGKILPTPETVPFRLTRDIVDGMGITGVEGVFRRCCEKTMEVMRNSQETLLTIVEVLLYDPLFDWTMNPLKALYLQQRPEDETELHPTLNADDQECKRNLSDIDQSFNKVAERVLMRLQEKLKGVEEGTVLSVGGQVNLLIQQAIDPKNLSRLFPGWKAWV

As for `N#Cc1cccc(CNc2ccc3c(c2)Cc2cccc(-c4cc(N5CCOCC5)cc(=O)[nH]4)c2O3)n1` [Example 2-14-13, 6-(((5-(4-Morpholino-6-oxo-1,6-dihydropyridin-2-yl)-9H-xanthen-2-yl)amino)methyl) picolinonitrile], the IC50 in assay [1] is less than 100 nM. Further, in assay [2] (Homo sapiens, NCI-H460, 120 h), the SER2 (concentration at which the radiation sensitivity-enhancement ratio reaches 2) was 100 to 500 nM.
`O=c1cc(N2CCOCC2)cc(-c2cccc3c2Oc2ccc(NCc4cnc5ccccc5c4)cc2S3)[nH]1` [Example 4-4-15, 4-Morpholino-6-(8-((quinolin-3-ylmethyl)amino)phenoxathiin-4-yl) pyridin-2(1H)-one]: in assay [1], the IC50 is less than 100 nM. Besides, the SER2 (concentration at which the radiation sensitivity-enhancement ratio reaches 2) in assay [2] (Homo sapiens, NCI-H460, 120 h) lay within 100 to 500 nM.
For the compound `Cc1ccnc(CNc2ccc3c(c2)Cc2cccc(-c4cc(N5CCOCC5)cc(=O)[nH]4)c2O3)c1` [Example 2-2-40, 6-(7-(((4-Methylpyridin-2-yl)methyl)amino)-9H-xanthen-4-yl)-4-morpholino pyridin-2(1H)-one], the IC50 in assay [1] was less than 100 nM. For the same compound, the SER2 (concentration at which the radiation sensitivity-enhancement ratio reaches 2) in assay [2] (Homo sapiens, NCI-H460, 120 h) was 100 to 500 nM.
Take `Cc1cccc(CNc2ccc3c(c2)Sc2cccc(-c4cc(N5CCOCC5)cc(=O)[nH]4)c2O3)n1` [Example 4-8-5, 6-(8-(((6-Methylpyridin-2-yl)methyl)amino)phenoxathiin-4-yl)-4-morpholino pyridin-2(1H)-one]: the IC50 in assay [1] is less than 100 nM. Moreover, in assay [2] (Homo sapiens, NCI-H460, 120 h), the SER2 (concentration at which the radiation sensitivity-enhancement ratio reaches 2) lay within 100 to 500 nM.
Turning to `Cc1ccnc(CNc2ccc3c(c2)Cc2ccc(F)c(-c4cc(N5CCOCC5)cc(=O)[nH]4)c2O3)c1` [Example 2-46-5, 6-(3-Fluoro-7-(((4-methylpyridin-2-yl)methyl)amino)-9H-xanthen-4-yl)-4-morpholinopyridin-2(1H)-one], the IC50 in assay [1] is less than 100 nM. For the same compound, in assay [2] (Homo sapiens, NCI-H460, 120 h), the SER2 (concentration at which the radiation sensitivity-enhancement ratio reaches 2) fell in the range of 100 to 500 nM.
As for `O=c1cc(N2CCOCC2)cc(-c2cccc3c2Sc2ccc(NC4CCN(C5CC5)CC4)cc2S3)[nH]1` [Example 1-24-18, 6-(7-((1-Cyclopropylpiperidin-4-yl)amino)thianthren-1-yl)-4-morpholino pyridin-2(1H)-one], the IC50 in assay [1] is less than 100 nM. Besides, the SER2 (concentration at which the radiation sensitivity-enhancement ratio reaches 2) in assay [2] (Homo sapiens, NCI-H460, 120 h) was 100 to 500 nM.
For `CCN(C)c1cncc(CNc2ccc3c(c2)Cc2cccc(-c4cc(N5CCOCC5)cc(=O)[nH]4)c2O3)c1` [Example 2-21-9, 6-(7-(((5-(Ethyl(methyl)amino)pyridin-3-yl)methyl)amino)-9H-xanthen-4-yl)-4-morpholino pyridin-2(1H)-one], the IC50 in assay [1] is less than 100 nM. Moreover, the SER2 (concentration at which the radiation sensitivity-enhancement ratio reaches 2) in assay [2] (Homo sapiens, NCI-H460, 120 h) lay in the range of 500 to 2000 nM.
For the compound `CN(C)c1nccc(CNc2ccc3c(c2)Cc2cccc(-c4cc(N5CCOCC5)cc(=O)[nH]4)c2O3)n1` [Example 2-13-5, 6-(7-(((2-(Dimethylamino)pyrimidin-4-yl)methyl)amino)-9H-xanthen-4-yl)-4-morpholino pyridin-2(1H)-one], the IC50 in assay [1] was less than 100 nM. The SER2 (concentration at which the radiation sensitivity-enhancement ratio reaches 2) in assay [2] (Homo sapiens, NCI-H460, 120 h) is 500 to 2000 nM.
For `Cc1cccc(C(C)Nc2ccc3c(c2)Sc2cccc(-c4cc(N5CCOCC5)cc(=O)[nH]4)c2O3)n1` (centres unmarked) [Example 4-4-30, 6-(8-((1-(6-Methylpyridin-2-yl)ethyl)amino)phenoxathiin-4-yl)-4-morpholino pyridin-2(1H)-one], the IC50 in assay [1] was less than 100 nM. In addition, the SER2 (concentration at which the radiation sensitivity-enhancement ratio reaches 2) in assay [2] (Homo sapiens, NCI-H460, 120 h) fell in the range of 100 to 500 nM.
`Cc1ccc(C(Nc2ccc3c(c2)Sc2cccc(-c4cc(N5CCOCC5)cc(=O)[nH]4)c2S3)C2CCN(C)CC2)nc1` (single isomer, unassigned) [Example 1-51-1, 6-(7-(((1-methylpiperidin-4-yl)(5-methylpyridin-2-yl)methyl)amino)thianthren-1-yl)-4-morpholinopyridin-2(1H)-one]: in assay [1], the IC50 was less than 100 nM. Also, the SER2 (concentration at which the radiation sensitivity-enhancement ratio reaches 2) in assay [2] is less than 100 nM.
As to `Cc1cccc(C(CO)Nc2ccc3c(c2)Sc2cccc(-c4cc(N5CCOCC5)cc(=O)[nH]4)c2S3)n1` (single isomer, unassigned) [Example 1-12-140-2, 6-(7-((2-hydroxy-1-(6-methylpyridin-2-yl)ethyl)amino)thianthren-1-yl)-4-morpholinopyridin-2(1H)-one], in assay [1], the IC50 is less than 100 nM. Moreover, the SER2 (concentration at which the radiation sensitivity-enhancement ratio reaches 2) in assay [2] (Homo sapiens, NCI-H460, 120 h) was less than 100 nM.
For the compound `O=c1cc(N2CCOCC2)cc(-c2cccc3c2Oc2ccc(NCc4cc(-c5cccnc5)ccn4)cc2C3)[nH]1` [Example 2-2-72], the IC50 in assay [1] is less than 100 nM; in assay [2] (Homo sapiens, NCI-H460, 120 h, read-out: SER2), 100 to 500 nM.
On to `O=c1cc(N2CCOCC2)cc(-c2cccc3c2Oc2ccc(NCc4cc(Cl)ccn4)cc2C3)[nH]1` [Example 2-2-64, 6-(7-(((4-Chloropyridin-2-yl)methyl)amino)-9H-xanthen-4-yl)-4-morpholino pyridin-2(1H)-one], for which the IC50 in assay [1] was less than 100 nM. For the same compound, the SER2 (concentration at which the radiation sensitivity-enhancement ratio reaches 2) in assay [2] (Homo sapiens, NCI-H460, 120 h) fell in the range of 100 to 500 nM.
With `CNc1ncc(CNc2ccc3c(c2)Sc2cccc(-c4cc(N5CCOCC5)cc(=O)[nH]4)c2O3)cn1` [Example 4-4-13, 6-(8-(((2-(Methylamino)pyrimidin-5-yl)methyl)amino)phenoxathiin-4-yl)-4-morpholino pyridin-2(1H)-one], the IC50 in assay [1] was less than 100 nM. For the same compound, the SER2 (concentration at which the radiation sensitivity-enhancement ratio reaches 2) in assay [2] (Homo sapiens, NCI-H460, 120 h) fell in the range of 100 to 500 nM.
With `Cc1cnc(C(CCN(C)C)Nc2ccc3c(c2)Sc2cccc(-c4cc(N5CCOCC5)cc(=O)[nH]4)c2S3)cn1` (single isomer, unassigned) [Example 1-22-12-2, 6-(7-((3-(dimethylamino)-1-(5-methylpyrazin-2-yl)propyl)amino)thianthren-1-yl)-4-morpholinopyridin-2(1H)-one], in assay [1], the IC50 is less than 100 nM. Further, the SER2 (concentration at which the radiation sensitivity-enhancement ratio reaches 2) in assay [2] is less than 100 nM.
Consider `Cc1cnc(C(CCN(C)C)Nc2ccc3c(c2)Sc2cccc(-c4cc(N5CCOCC5)cc(=O)[nH]4)c2S3)cn1` (centres unmarked) [Example 1-22-2, 6-(7-((3-(Dimethylamino)-1-(5-methylpyrazin-2-yl)propyl)amino)thianthren-1-yl)-4-morpholino pyridin-2 (1H)-one], for which, in assay [1], the IC50 was less than 100 nM. Moreover, the SER2 (concentration at which the radiation sensitivity-enhancement ratio reaches 2) in assay [2] (Homo sapiens, NCI-H460, 120 h) lay within 100 to 500 nM.
Regarding `O=c1cc(N2CCOCC2)cc(-c2cccc3c2Oc2ccc(NCc4ccnc(Br)c4)cc2S3)[nH]1` [Example 4-4-16, 6-(8-(((2-Bromopyridin-4-yl)methyl)amino)phenoxathiin-4-yl)-4-morpholino pyridin-2(1H)-one], the IC50 in assay [1] is less than 100 nM. In addition, in assay [2] (Homo sapiens, NCI-H460, 120 h), the SER2 (concentration at which the radiation sensitivity-enhancement ratio reaches 2) lay in the range of 100 to 500 nM.
On to `Cc1cnc(C(CF)Nc2ccc3c(c2)Sc2cccc(-c4cc(N5CCOCC5)cc(=O)[nH]4)c2S3)nc1` (centres unmarked) [Example 1-12-93, 6-(7-((2-Fluoro-1-(5-methylpyrimidin-2-yl)ethyl)amino)thianthren-1-yl)-4-morpholino pyridin-2(1H)-one], for which the IC50 in assay [1] is less than 100 nM. Moreover, the SER2 (concentration at which the radiation sensitivity-enhancement ratio reaches 2) in assay [2] (Homo sapiens, NCI-H460, 120 h) lay in the range of 100 to 500 nM.
Take `CC(Nc1ccc2c(c1)Sc1cccc(-c3cc(N4CCOCC4)cc(=O)[nH]3)c1S2)c1nccc(C(F)F)n1` (centres unmarked) [Example 1-12-87, 6-(7-((1-(4-(Difluoromethyl)pyrimidin-2-yl)ethyl)amino)thianthren-1-yl)-4-morpholino pyridin-2(1H)-one]: in assay [1], the IC50 was less than 100 nM. The SER2 (concentration at which the radiation sensitivity-enhancement ratio reaches 2) in assay [2] (Homo sapiens, NCI-H460, 120 h) fell in the range of 100 to 500 nM.

Values taken from patent publication US9586951B2 (FUJIFILM Corporation, priority 2013, dated 2017).
